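96-well plates; 48 h exposure; 5 concentrations. Endpoints by linear interpolation between flanking doses. Not reached: highest tested concentration assigned. TGI is the concentration that stops growth completely.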
Assays:
Assay in all cases: inhibition of tumour cell growth, NCI panel, 48 h
A498 renal = system: A498 renal
A549 NSCLC = system: A549 NSCLC
ACHN renal = system: ACHN renal
CAKI-1 renal = system: CAKI-1 renal
EKVX NSCLC = system: EKVX NSCLC
HCT-15 colon = system: HCT-15 colon
HL-60(TB) leukemia = system: HL-60(TB) leukemia
IGROV1 ovarian = system: IGROV1 ovarian
LOX IMVI melanoma = system: LOX IMVI melanoma
M14 melanoma = system: M14 melanoma
MCF7 breast = system: MCF7 breast
MOLT-4 leukemia = system: MOLT-4 leukemia
NCI-H23 lung = system: NCI-H23 lung
NCI-H460 lung = system: NCI-H460 lung
OVCAR-4 ovarian = system: OVCAR-4 ovarian
SN12C renal = system: SN12C renal
SNB-75 CNS = system: SNB-75 CNS
TK-10 renal = system: TK-10 renal
U251 CNS = system: U251 CNS
UACC-257 melanoma = system: UACC-257 melanoma

`Cc1cc(C)nc(NS(=O)(=O)c2ccc(Nc3c4ccccc4nc4c(C(=O)NCCCN(CCO)CCO)cccc34)cc2)n1` was tested, and the TGI (A498 renal) was over 100 µM, the TGI (A549 NSCLC) was over 100 µM and the TGI (ACHN renal) was over 100 µM. The TGI (CAKI-1 renal) was over 100 µM, the TGI (EKVX NSCLC) was over 100 µM and the TGI (HCT-15 colon) was over 100 µM. The TGI (HL-60(TB) leukemia) was 38.6 µM, the TGI (IGROV1 ovarian) was over 100 µM and the TGI (LOX IMVI melanoma) was 46.1 µM. The TGI (M14 melanoma) was 99.2 µM, the TGI (MCF7 breast) was over 100 µM and the TGI (MOLT-4 leukemia) was over 100 µM. It also gave a TGI (NCI-H23 lung) of over 100 µM, a TGI (NCI-H460 lung) of 44 µM and a TGI (OVCAR-4 ovarian) of over 100 µM. It also gave a TGI (SN12C renal) of over 100 µM, a TGI (SNB-75 CNS) of 23.1 µM and a TGI (TK-10 renal) of over 100 µM. The TGI (U251 CNS) was over 100 µM and the TGI (UACC-257 melanoma) was over 100 µM.
`COc1nc(SC)nc2c1cnn2C1OC(C(O)CO)C(OC)C1O` (configuration not stated) gave a TGI (A498 renal) of over 100 µM, a TGI (A549 NSCLC) of over 100 µM and a TGI (EKVX NSCLC) of over 100 µM. It also gave a TGI (HCT-15 colon) of over 100 µM, a TGI (HL-60(TB) leukemia) of over 100 µM and a TGI (IGROV1 ovarian) of over 100 µM. The TGI (LOX IMVI melanoma) was over 100 µM, the TGI (MCF7 breast) was over 100 µM and the TGI (MOLT-4 leukemia) was 69 µM. For the same molecule, the TGI (NCI-H23 lung) was over 100 µM, the TGI (NCI-H460 lung) was over 100 µM and the TGI (OVCAR-4 ovarian) was over 100 µM. For the same molecule, the TGI (SN12C renal) was over 100 µM, the TGI (SNB-75 CNS) was over 100 µM and the TGI (U251 CNS) was over 100 µM. It also gave a TGI (UACC-257 melanoma) of over 100 µM.
For `Cc1[nH]c(=O)nc(N/N=C/c2ccc(Cl)cc2)c1C(=O)NC(C)(CO)CO`, the TGI (A498 renal) was over 100 µM, the TGI (ACHN renal) was over 100 µM and the TGI (CAKI-1 renal) was over 100 µM. The TGI (EKVX NSCLC) was over 100 µM, the TGI (HCT-15 colon) was over 100 µM and the TGI (HL-60(TB) leukemia) was over 100 µM. The TGI (IGROV1 ovarian) was over 100 µM, the TGI (LOX IMVI melanoma) was over 100 µM and the TGI (M14 melanoma) was over 100 µM. It also gave a TGI (MCF7 breast) of over 100 µM, a TGI (MOLT-4 leukemia) of over 100 µM and a TGI (NCI-H23 lung) of over 100 µM. The TGI (NCI-H460 lung) was over 100 µM, the TGI (OVCAR-4 ovarian) was over 100 µM and the TGI (SN12C renal) was over 100 µM. It also gave a TGI (SNB-75 CNS) of over 100 µM, a TGI (TK-10 renal) of over 100 µM and a TGI (U251 CNS) of over 100 µM. For the same molecule, the TGI (UACC-257 melanoma) was over 100 µM.
`COc1cc(C2C(Cl)C(=O)N2NC(=O)c2ccccc2O)ccc1O` (configuration not stated) showed a TGI (A498 renal) of over 100 µM, a TGI (A549 NSCLC) of over 100 µM and a TGI (ACHN renal) of over 100 µM. It also gave a TGI (HCT-15 colon) of over 100 µM, a TGI (HL-60(TB) leukemia) of over 100 µM and a TGI (IGROV1 ovarian) of over 100 µM. It also gave a TGI (LOX IMVI melanoma) of over 100 µM, a TGI (M14 melanoma) of over 100 µM and a TGI (MOLT-4 leukemia) of over 100 µM. It also gave a TGI (NCI-H23 lung) of over 100 µM, a TGI (NCI-H460 lung) of over 100 µM and a TGI (SN12C renal) of over 100 µM. For the same molecule, the TGI (TK-10 renal) was over 100 µM, the TGI (U251 CNS) was over 100 µM and the TGI (UACC-257 melanoma) was over 100 µM.
In the case of `CC1(C23CC4CC(CC(C4)C2)C3)n2c(=O)n(-c3ccccc3)c(=O)n2C1(C)C12CC3CC(CC(C3)C1)C2` (configuration not stated), the TGI (A498 renal) is reported as over 100 µM, the TGI (A549 NSCLC) is reported as over 100 µM and the TGI (ACHN renal) is reported as over 100 µM. It also gave a TGI (CAKI-1 renal) of over 100 µM, a TGI (EKVX NSCLC) of over 100 µM and a TGI (HCT-15 colon) of over 100 µM. For the same molecule, the TGI (HL-60(TB) leukemia) was over 100 µM, the TGI (IGROV1 ovarian) was over 100 µM and the TGI (M14 melanoma) was over 100 µM. For the same molecule, the TGI (MCF7 breast) was over 100 µM, the TGI (MOLT-4 leukemia) was over 100 µM and the TGI (NCI-H23 lung) was over 100 µM. For the same molecule, the TGI (NCI-H460 lung) was over 100 µM, the TGI (SN12C renal) was over 100 µM and the TGI (SNB-75 CNS) was over 100 µM. The TGI (TK-10 renal) was over 100 µM, the TGI (U251 CNS) was over 100 µM and the TGI (UACC-257 melanoma) was over 100 µM.
Molecule `CCOC(=O)c1csc(NC(=O)CCN2CCCCC2)n1` has a TGI (A498 renal) of over 100 µM, a TGI (A549 NSCLC) of over 100 µM and a TGI (ACHN renal) of over 100 µM. It also gave a TGI (CAKI-1 renal) of over 100 µM, a TGI (EKVX NSCLC) of over 100 µM and a TGI (HCT-15 colon) of over 100 µM. The TGI (HL-60(TB) leukemia) was over 100 µM, the TGI (IGROV1 ovarian) was over 100 µM and the TGI (LOX IMVI melanoma) was over 100 µM. For the same molecule, the TGI (M14 melanoma) was over 100 µM, the TGI (MCF7 breast) was over 100 µM and the TGI (MOLT-4 leukemia) was over 100 µM. It also gave a TGI (NCI-H23 lung) of over 100 µM, a TGI (NCI-H460 lung) of over 100 µM and a TGI (OVCAR-4 ovarian) of over 100 µM. For the same molecule, the TGI (TK-10 renal) was over 100 µM, the TGI (U251 CNS) was over 100 µM and the TGI (UACC-257 melanoma) was over 100 µM.
`CCCCC(C)C1CCC2(C)C=CC(=O)C(C)=C2C1O` (configuration not stated) showed a TGI (A498 renal) of over 100 µM, a TGI (A549 NSCLC) of over 100 µM and a TGI (CAKI-1 renal) of over 100 µM. The TGI (EKVX NSCLC) was over 100 µM, the TGI (HCT-15 colon) was over 100 µM and the TGI (HL-60(TB) leukemia) was over 100 µM. It also gave a TGI (IGROV1 ovarian) of over 100 µM, a TGI (LOX IMVI melanoma) of over 100 µM and a TGI (MCF7 breast) of over 100 µM. It also gave a TGI (MOLT-4 leukemia) of over 100 µM, a TGI (NCI-H23 lung) of over 100 µM and a TGI (NCI-H460 lung) of over 100 µM. The TGI (OVCAR-4 ovarian) was over 100 µM, the TGI (SN12C renal) was over 100 µM and the TGI (SNB-75 CNS) was over 100 µM. For the same molecule, the TGI (U251 CNS) was over 100 µM and the TGI (UACC-257 melanoma) was over 100 µM.
With `CON(C)C(C#N)=C(C#N)C#N` the TGI (A498 renal) was over 10 µM, the TGI (A549 NSCLC) was over 10 µM and the TGI (ACHN renal) was over 10 µM. The TGI (CAKI-1 renal) was over 10 µM, the TGI (EKVX NSCLC) was over 10 µM and the TGI (HCT-15 colon) was over 10 µM. For the same molecule, the TGI (HL-60(TB) leukemia) was over 10 µM, the TGI (IGROV1 ovarian) was over 10 µM and the TGI (LOX IMVI melanoma) was over 10 µM. It also gave a TGI (M14 melanoma) of over 10 µM, a TGI (MCF7 breast) of over 10 µM and a TGI (MOLT-4 leukemia) of over 10 µM. It also gave a TGI (NCI-H23 lung) of over 10 µM, a TGI (NCI-H460 lung) of over 10 µM and a TGI (OVCAR-4 ovarian) of over 10 µM. It also gave a TGI (SN12C renal) of over 10 µM, a TGI (SNB-75 CNS) of over 10 µM and a TGI (TK-10 renal) of over 10 µM. The TGI (U251 CNS) was over 10 µM.

From PubChem BioAssay (NCI)
